The values below come from patent publication US20230114083A1, “PHOTOACOUSTIC IMAGING AGENT” (National University Corporation Hokkaido University, priority 2021, published 2023).

Where a name gives a salt, the structure may show the parent alone. Read-outs that look alike come from different tables or passages of the source.

The data set in a line: Measurement of optical absorption spectrum and its pH dependence (ultraviolet visible spectrophotometer). Format: physicochemical. The settings on record: for absorption maxima / shift of maximum absorption wavelength: in DMSO; for absorption maxima / pH dependence of absorption properties: 1 μM; for pH dependence of absorption properties: phosphate buffers of various pH, 30% by volume DMSO; for shift of maximum absorption wavelength: aryl piperazine cyanines. The procedure:
In order to investigate the optical absorption properties of the synthesized ICG derivatives, absorption spectra were measured and their pH dependence was examined using an ultraviolet visible spectrophotometer at a concentration of 1 μM either in dimethyl sulfoxide (DMSO) or in phosphate buffers of various pH with DMSO as a cosolvent (30% by volume of DMSO and 70% by volume of phosphate buffer).
For each ICG derivative, an absorption spectrum consisted of relative absorbance was obtained by setting the absorbance of the absorption peak near 700 nm in DMSO (absorbance at the maximum absorption wavelength) to 1.
The optical absorption spectra of the IGC derivative PBA-Cy was measured at various pH values in the same manner as in Example 1.
The optical absorption properties of the synthesized ICG derivatives (PPA-Cy and SS-PPA-Cy) were investigated in the same manner as in Example 1, and their pH dependence was examined.

[1] abbreviates: phosphate buffers of various pH with DMSO as cosolvent, from pH dependence of absorption spectra, read-out: pKa.

Regarding “2-[2-[3-[2-[1,3-dihydro-3,3-dimethyl-1-(3-sulfopropyl)-2H-benz[e]indol-2-ylidene]ethylidene]-2-(4-methyl-1-piperazinyl)-1-cyclohexen-1-yl]ethenyl]-3,3-dimethyl-1-(3-sulfopropyl)-3H-benz[e]indolium, Inner Salt, Sodium Salt [MP-Cy]”, the absorption maxima was approximately 700 nm and the “pH dependence of absorption properties” value is listed as “the maximum absorption wavelength shifted to the longer wavelength side as the pH became more acidic”. Regarding `CC1(C)C(=CC=C2CCCC(C=CC3=[N+](CCCS(=O)(=O)[O-])c4ccc5ccccc5c4C3(C)C)=C2N2CC[N+](C)(C)CC2)N(CCCS(=O)(=O)[O-])c2ccc3ccccc3c21` [DMP-Cy, 2-[2-[3-[2-[1,3-dihydro-3,3-dimethyl-1-(3-sulfopropyl)-2H-benz[e]indol-2-ylidene]ethylidene]-2-(4-dimethyl-1-piperaziniumyl)-1-cyclohexen-1-yl]ethenyl]-3,3-dimethyl-1-(3-sulfopropyl)-3H-benz[e]indolium, Inner Salt, Sodium Salt], the absorption maxima entry was “around 800 nm”. Consider `CC1(C)C(/C=C/C2=C(N3CCOCC3)C(=C/C=C3/N(CCCS(=O)(=O)[O-])c4ccc5ccccc5c4C3(C)C)/CCC2)=[N+](CCCS(=O)(=O)[O-])c2ccc3ccccc3c21.[Na+]` [Mor-Cy, 2-[2-[3-[2-[1,3-dihydro-3,3-dimethyl-1-(3-sulfopropyl)-2H-benz[e]indol-2-ylidene]ethylidene]-2-(4-morpholinyl)-1-cyclohexen-1-yl]ethenyl]-3,3-dimethyl-1-(3-sulfopropyl)-3H-benz[e]indolium, Inner Salt, Sodium Salt], for which the absorption maxima is on record as approximately 700 nm and the “pH dependence of absorption properties” value is reported as “no change in absorption properties due to the pH”. Regarding “2-[2-[3-[2-[1,3-dihydro-3,3-dimethyl-1-(3-sulfopropyl)-2H-benz[e]indol-2-ylidene]ethylidene]-2- [1-(4-nitrophenyl)-piperazinyl]-1-cyclohexen-1-yl]ethenyl]-3,3-dimethyl-1-(3-sulfopropyl)-3H-benz[e]indolium, Inner Salt, Sodium Salt [Nitro-PhP-Cy]”, the “shift of maximum absorption wavelength” value is on record as “the maximum absorption wavelength was shifted to the longer wavelength side”. As to `CC1(C)C(/C=C/C2=C(N3CCN(CCC(=O)[O-])CC3)C(=C/C=C3/N(CCCS(=O)(=O)[O-])c4ccc5ccccc5c4C3(C)C)/CCC2)=[N+](CCCS(=O)(=O)[O-])c2ccc3ccccc3c21.[Na+].[Na+]` [PPA-Cy, 2-[2-[2-[4-(2-carboxyethyl)piperazinyl]-3-[2-[1,3-dihydro-3,3-dimethyl-1-(3-sulfopropyl)-2H-benz[e]indol-2-ylidene]ethylidene]-1-cyclohexenyl]ethenyl]-3,3-dimethyl-1-(3-sulfopropyl)-3H-benz[e]indolium, Inner Salt, Sodium Salt], the “pH dependence of absorption properties” value is “the maximum absorption wavelength shifted to the longer wavelength side as the pH became more acidic”. Also, the pKa under setting [1] worked out at 5.7. For the molecule “2-[2-[2-[4-(2-carboxyethyl)piperazinyl]-3-[2-[1,3-dihydro-3,3-dimethyl-1-(3-sulfopropyl)-7-sulfo-2H-benz[e]indol-2-ylidene]ethylidene]cyclohexen-1-yl]ethenyl]-3,3-dimethyl-1-(3-sulfopropyl)-7-sulfo-3H-benz[e]indolium, Inner Salt, Sodium Salt [SS-PPA-Cy]”, the pKa was determined as 6.8 and the “pH dependence of absorption properties” value is listed as “the maximum absorption wavelength shifted to the longer wavelength side as the pH became more acidic”. Turning to “2-[2-[3-[2-[1,3-Dihydro-3,3-dimethyl-1-(3-sulfopropyl)-2H-benz[e]indol-2-ylidene]ethylidene]-2-(4-acetyl-1-piperazinyl)-1-cyclohexen-1-yl]ethenyl]-3,3-dimethyl-1-(3-sulfopropyl)-3H-benz[e]indolium, Inner Salt, Sodium Salt [AcP-Cy]”, the absorption maxima entry is on record as “around 800 nm”. As to “2-[2-[3-[2-[1,3-dihydro-3,3-dimethyl-1-(3-sulfopropyl)-2H-benz[e]indol-2-ylidene]ethylidene]-2-(4-methylsulfonyl-1-piperazinyl)-1-cyclohexen-1-yl]ethenyl]-3,3-dimethyl-1-(3-sulfopropyl)-3H-benz[e]indolium, Inner Salt, Sodium Salt [MSP-Cy]”, the absorption maxima result was “around 800 nm”. For `CC1(C)C(/C=C/C2=C(N3CCN(Cc4ccc(CC(=O)O)cc4)CC3)C(=C/C=C3/N(CCCS(=O)(=O)[O-])c4ccc5ccccc5c4C3(C)C)/CCC2)=[N+](CCCS(=O)(=O)[O-])c2ccc3ccccc3c21.[Na+]` [PBA-Cy, 2-[2-[3-[2-[1,3-dihydro-3,3-dimethyl-1-(3-sulfopropyl)-2H-benz[e]indol-2-ylidene]ethylidene]-2-[1-(4-carboxymethylbenzyl)-piperazinyl]-1-cyclohexen-1-yl]ethenyl]-3,3-dimethyl-1-(3-sulfopropyl)-3H-benz[e]indolium, Inner Salt, Sodium Salt], the “pH dependence of absorption properties” value is given as “shifted to the longer wavelength side as the pH became more acidic”. Also, under setting [1], the pKa was 4.9. In addition, the molar absorption coefficient (used to calculate PBA-Cy concentration in conjugate solution) was 32,000 M^−1 cm^−1. Regarding `CC1(C)C(=CC=C2CCCC(C=CC3=[N+](CCCS(=O)(=O)[O-])c4ccc5ccccc5c4C3(C)C)=C2N2CCCCC2)N(CCCS(=O)(=O)[O-])c2ccc3ccccc3c21.[Na+]` [Piperi-Cy, 2-[2-[3-[2-[1,3-dihydro-3,3-dimethyl-1-(3-sulfopropyl)-2H-benz[e]indol-2-ylidene]ethylidene]-2-(1-piperidinyl)-1-cyclohexen-1-yl]ethenyl]-3,3-dimethyl-1-(3-sulfopropyl)-3H-benz[e]indolium, Inner Salt, Sodium Salt], the absorption maxima is approximately 700 nm. For “2-[2-[3-[2-[1,3-dihydro-3,3-dimethyl-1-(3-sulfopropyl)-2H-benz[e]indol-2-ylidene]ethylidene]-2-[1-(4-cyanophenyl)-piperazinyl]-1-cyclohexen-1-yl]ethenyl]-3,3-dimethyl-1-(3-sulfopropyl)-3H-benz[e]indolium, Inner Salt, Sodium Salt [Nitrille-PhP-Cy]”, the “shift of maximum absorption wavelength” value is reported as “the maximum absorption wavelength was shifted to the longer wavelength side”.
